Test results: ChEMBL document CHEMBL5385919, “A Survey of Recently Discovered Naturally Occurring Organohalogen Compounds” (J Nat Prod, 2024)
Values after ≈ are worked out from the molar mass of the structure shown. Values belong to the compound of their own block, whether it stands above or below them. Numbered stars: 1 amine (or outer) side, 2 acyl side, 3 side chain; on linkers, the order of the positions; unused ones are H or OH. Square brackets hold non-standard residues; d marks the D form. Peptide text beside a SMILES is read from it. X1 = CC(C)(O)/C=C/[C@]12C[C@@H](C(=O)[*:2])N([*:1])[C@@H]1Nc1ccc(Br)cc12

What was measured:
RAW264.7 = test: Inhibition of LPS-induced NO production in mouse RAW264.7 cells; format: functional, cell-based
[1] = test system: Trypanosoma brucei rhodesiense; test: Antitrypanosomal activity against Trypanosoma brucei rhodesiense IL-1501 assessed as inhibition of cell growth incubated for 69 hrs by AlamarBlue assay; format: functional, organism-based
Escherichia coli = test: Antibacterial activity against Escherichia coli assessed as reduction in bacterial growth; format: functional
Vibrio harveyi [2] = test: Antimicrobial activity against Vibrio harveyi assessed as bacterial growth inhibition incubated for 12 hrs by serial dilution analysis; format: functional
Prorocentrum minimum = test: Antimicrobial activity against Prorocentrum minimum assessed as […] growth inhibition; format: functional
Bacillus subtilis [3] = test: Antibacterial activity against Bacillus subtilis ATCC 6633 assessed as reduction in bacterial growth; format: functional
HeLa = test: Cytotoxicity against human HeLa cells assessed as inhibition of cell growth; format: functional, cell-based
Staphylococcus aureus [4] = test: Antibacterial activity against Staphylococcus aureus FDA 209P JC-1 assessed as reduction in bacterial growth; format: functional
Staphylococcus aureus [5] = test: Antibacterial activity against Staphylococcus aureus assessed as reduction in bacterial growth; format: functional
Bacillus subtilis [6] = test: Antibacterial activity against Bacillus subtilis assessed as reduction in bacterial growth; format: functional
MDA-MB-231 = test: Growth inhibition of human MDA-MB-231 cells assessed inhibition of cell growth; format: functional
Vibrio harveyi [7] = test: Antimicrobial activity against Vibrio harveyi assessed as bacterial growth inhibition; format: functional
Bacillus subtilis [8] = test: Antibacterial activity against Bacillus subtilis KCTC 1021 assessed as reduction in bacterial growth incubated for 24 hrs by Mueller-Hinton broth based assay; format: functional
Kocuria rhizophila = test: Antibacterial activity against Kocuria rhizophila KCTC 1915 assessed as reduction in bacterial growth incubated for 24 hrs by Mueller-Hinton broth based assay; format: functional
Staphylococcus aureus [9] = test: Antibacterial activity against Staphylococcus aureus KCTC 1927 assessed as reduction in bacterial growth incubated for 24 hrs by Mueller-Hinton broth based assay; format: functional
HepG2 = test: Cytotoxicity against human HepG2 cells assessed as inhibition of cell growth; format: functional, cell-based
Staphylococcus aureus [10] = test: Antibacterial activity against methicillin resistant Staphylococcus aureus assessed as reduction in bacterial growth; format: functional, organism-based
[11] = Antioxidant activity assessed as DPPH radical scavenging activity; format: functional
MOLT-4 = test: Cytotoxicity against human MOLT-4 cells assessed as inhibition of cell growth incubated for 24 hrs by MTT assay; format: functional, cell-based; details: MOLT-4, 24 h
Micrococcus luteus = test: Antimicrobial activity against Micrococcus luteus assessed as bacterial growth inhibition; format: functional
ACHN = test: Growth inhibition of human ACHN cells assessed as cell viability incubated for 48 hrs by SRB assay; format: functional; details: pooled result: one value given for 6 cell lines, strains, targets or settings
A549 = test: Cytotoxicity against human A549 cells assessed as inhibition of cell growth incubated for 48 hrs by MTT assay; format: functional, cell-based; details: A549, 48 h
MH60 = test: Cytotoxicity in mouse MH60 cells assessed as inhibition of cell growth; format: functional, cell-based
HL-60 = test: Cytotoxicity against human HL-60 cells assessed as inhibition of cell growth; format: functional, cell-based
HCT-8 = test: Cytotoxicity against human HCT-8 cells assessed as inhibition of cell growth incubated for 48 hrs by MTT assay; format: functional, cell-based; details: HCT-8, 48 h

IC50 (RAW264.7): 16 µM
Structure (SMILES): CC(=O)/C=C/C1=CC[C@H]2[C@@H](C[C@@H]1C)OC(=O)[C@]2(O)CCl

IC50 [1]: 0.7 µM
Structure (SMILES): Oc1cc(Br)cc(Br)c1Oc1cc(Br)c(Br)c(Br)c1Oc1ccc(Br)cc1I

MIC (Escherichia coli): 0.025 µM (≈ 0.00828 µg/mL)
Structure (SMILES): O=C(O)c1cn(C2CC2)c2cc(N3CCNCC3)c(F)cc2c1=O [CIPROFLOXACIN]

MIC (Vibrio harveyi [2]): 8 µg/mL (≈ 11.5 µM) | MIC (Prorocentrum minimum): 0.61 µg/mL (≈ 0.876 µM)
Structure (SMILES): COc1cc(OC)c2c(O)c3c(=O)cc(C)oc3c(-c3c(OC)cc4c(I)c(O)c5c(=O)cc(C)oc5c4c3OC)c2c1

MIC (Bacillus subtilis [3]): 0.001 µg/mL (≈ 0.00171 µM) | MIC (Staphylococcus aureus [4]): 0.001 µg/mL (≈ 0.00171 µM)
Structure (SMILES): CO[C@H]1C[C@@H](O)[C@H](OC)c2oc3c4c5c(c(O)c3c(=O)c21)-c1c(cc2c(Cl)c(C)n(N)c(=O)c2c1O)C[C@H]5OCO4
IC50 (HeLa): 0.04 nM

MIC (Staphylococcus aureus [5]): 5.2 µM (≈ 2.96 µg/mL)
Structure (SMILES): O=C1Oc2cc(Br)c(O)c(Br)c2/C1=C/c1cc(Br)c(O)c(Br)c1

MIC (Escherichia coli): 37.5 µM (≈ 18.8 µg/mL) | MIC (Bacillus subtilis [6]): 18.5 µM (≈ 9.26 µg/mL)
Structure (SMILES): C[C@]12NC(=N)N[C@@]1(O)c1nc(-c3c[nH]c4ccccc34)cnc1-c1c2[nH]c2cc(Br)ccc12

MIC (Staphylococcus aureus [5]): 5.2 µM (≈ 4.03 µg/mL)
Structure (SMILES): COc1c(Br)cc(C/C(=N/O)C(=O)NC[C@@H](O)COc2c(Br)cc([C@H]3CNC(=O)O3)cc2Br)c(O)c1Br

MIC (Staphylococcus aureus [5]): 5.2 µM (≈ 3.96 µg/mL)
Structure (SMILES): O=C1NC[C@H](c2cc(Br)c(OC[C@H](O)CNC(=O)/C(Cc3cc(Br)c(O)c(Br)c3O)=N\O)c(Br)c2)O1

GI50 (MDA-MB-231): 0.72 µM
Structure (SMILES): CCCC[C@H]1CCCCC[C@@H](O)c2cc(O)c(c(O)c2)[C@@H](CCCC)CCC[C@@H](Cl)C[C@@H](OC)c2cc(O)c1c(O)c2

MIC (Vibrio harveyi [7]): 16 µg/mL (≈ 46.8 µM)
Structure (SMILES): COC(=O)/C=C/C(=O)N[C@H](Cc1ccc(O)c(Cl)c1)C(=O)OC

MIC (Bacillus subtilis [8]): 1 µg/mL (≈ 1.88 µM) | MIC (Kocuria rhizophila): 1 µg/mL (≈ 1.88 µM) | MIC (Staphylococcus aureus [9]): 1 µg/mL (≈ 1.88 µM)
Structure (SMILES): CC(C)=C(C/C=C(\C)CC[C@@H](Cl)C(C)(C)Cl)C[C@@]1(O)C(=O)c2cc(O)cc(O)c2C(=O)[C@@]1(C)Cl

Structure (SMILES): CC(C)c1cc(=O)c2c(cc(O)c3c(=O)c4c(O)c(Br)ccc4c(=O)c32)c1=O
IC50 (HepG2): 9.3 µM | IC50 (Staphylococcus aureus [10]): 0.098 µg/mL (≈ 0.222 µM)

IC50 [11]: 3.5 µM
Structure (SMILES): O=Cc1cc(Br)c(O)c(O)c1Cc1ccc(O)c(Br)c1

IC50 [1]: 1.2 µM
Structure (SMILES): Oc1cc(Br)cc(Br)c1Oc1cc(Br)c(Br)c(Br)c1Oc1ccc(Br)cc1Br

Structure (SMILES): CC[C@H](C)[C@H]1O[C@H](CC(C)=O)O[C@@]1(C)/C=C/C1=CC2=C(Cl)C(=O)[C@](C)(O)[C@H](OC(C)=O)[C@H]2CO1
MIC (Staphylococcus aureus [10]): 25 µg/mL (≈ 50.3 µM)

Structure (SMILES): CC(C)C[C@@H]1NC(=O)[C@@H]2C[C@]3(/C=C/C(C)(C)O)c4cc(Br)ccc4N[C@H]3N2C(=O)[C@@H]2CCCN2C(=O)[C@H](C(C)C)NC(=O)[C@@H]2CCCN2C(=O)[C@H](CC(C)C)NC(=O)[C@@H]2CCCN2C(=O)[C@H](CC(C)C)NC(=O)[C@@H]2CCCN2C(=O)[C@H](Cc2ccccc2)NC1=O (cyclo(FPLPLPVP[X1]L))
IC50 (MOLT-4): 4.7 µM

GI50 (MDA-MB-231): 0.72 µM
Structure (SMILES): CCCCC[C@H]1CCC[C@@H](Cl)C[C@@H](OC)c2cc(O)c(c(O[C@@H]3OC[C@@H](O)[C@H](O)[C@H]3O)c2)[C@@H](CCCC)CCC[C@@H](Cl)C[C@@H](OC)c2cc(O)c1c(O)c2

MIC (Micrococcus luteus): 0.7 µM (≈ 0.215 µg/mL) | MIC (Bacillus subtilis [6]): 0.7 µM (≈ 0.215 µg/mL) | GI50 (ACHN): 4.9 µM | MIC (Staphylococcus aureus [5]): 0.7 µM (≈ 0.215 µg/mL)
Structure (SMILES): CC(C)Cc1c(O)cc2oc3cc(Cl)cn3c(=O)c2c1O

Structure (SMILES): CC(C)=C1C[C@@]2(COC(=O)Cc3cc(O)c(O)c(Cl)c3)C(=CC1=O)CC[C@@H](O)[C@@H]2C
IC50 (A549): 3.2 µM

Structure (SMILES): CC(C)=CCC1OC1(C)C1(O)C(O)C(=O)CC[C@]1(O)CCl (some centres undefined)
IC50 (MH60): 7.5 µM

Structure (SMILES): CC(C)[C@@]1(O)/C=C/[C@](C)(O)CC[C@H](Cl)[C@@]2(C)CC[C@H](O2)[C@](C)(O)CC1
IC50 (HL-60): 3.67 µM

Structure (SMILES): CC(C)/C1=C/[C@H](O)[C@](C)(O)CC[C@H](Cl)[C@@]2(C)CC[C@H](O2)[C@](C)(O)CC1
IC50 (HL-60): 3.67 µM

Structure (SMILES): C=C(COC(=O)Cc1ccc(O)c(Cl)c1)[C@@]12O[C@@H]1[C@@]1(C)C(=CC2=O)CC[C@@H](O)[C@@H]1C
IC50 (HCT-8): 7.3 µM
